Consider 4 molecules from article PMC7689835 (Journal of Clinical Pharmacology, 2020).

For data set [1] the following is noted: cited from earlier work.
A short description of data set [2]: Population PK model of AC886. Format: in vivo, human.
The nature of data set [3]: Observed plasma PK in clinical studies. Conditions: for geometric mean ratio of AC886 AUC0-24,ss to quizartinib AUC0-24,ss: noncompartmental analysis. The data set is classed as in vivo, human.
The next data set deals with FLT3 kinase. Conditions: read-out: dissociation constant (Kd); cited from earlier work.
Data set [4] can be described thus: Population PK model of quizartinib. Format: in vivo, human.
For data set [5] the following is noted: cited from earlier work. This is another data set of the same source.
Where [6] appears, read: before relative F1 for patients was incorporated into the model.
Where [7] appears, read: interoccasion variability, occasion 1.
The mark [8] stands for this setting: interoccasion variability, occasion 2.
Where [9] appears, read: interoccasion variability, occasion 3.
[10] abbreviates: interoccasion variability, occasion 4.

In the case of `CO[C@@H]1[C@H](N(C)C(=O)c2ccccc2)C[C@H]2O[C@]1(C)n1c3ccccc3c3c4c(c5c6ccccc6n2c5c31)C(=O)NC4` [midostaurin], in data set [1], the “decrease in exposure with CYP3A4 induction by rifampicin” value is above 10 fold and the “increase in exposure with CYP3A inhibition by ketoconazole” value is recorded as above 10 fold.

On to `CC(C)(CO)c1cc(NC(=O)Nc2ccc(-c3cn4c(n3)sc3cc(OCCN5CCOCC5)ccc34)cc2)no1` [AC886], for which the “FMET (fraction of quizartinib converted to AC886)” value in data set [2] (FIXED, based on AUC ratio in phase 2 study) stood at 0.500. Also, the “effect of mild or moderate hepatic impairment on PK” value in data set [2] (based on baseline liver function values) was “no effect”. Also, the “Magnitude of interindividual variability in Vcm” value in data set [2] (final estimate) is 117% CV. Further, in data set [2] (final model), the “increase in CLm with concomitant strong CYP3A inhibitor use” value turned out to be 10.6% and the “increase in Vcm with concomitant strong CYP3A inhibitor use” value is reported as 192%. The “IIV in CLm in healthy volunteers” value in data set [2] (healthy volunteers) is listed as 45.9% CV. Besides, the “IIV in CLm in patients” value in data set [2] (patients with AML) was found to be 64.1% CV. Also, in data set [2] (population mean), the “CLm (apparent clearance for metabolite)” value came to 4.09 L/h, the “CLm (fractional change in CLm for race black)” value came out at 0.586, the “CLm (fractional change in CLm for strong CYP3A inhibitors)” value was 0.106 and the “CLm (power of BSA in CLm)” value is 1.60. The “Vcm (fractional change in Vcm for strong CYP3A inhibitors)” value in data set [2] (population mean) was 1.92. In data set [3] (patients from the QuANTUM-R study, multiple daily doses), the median accumulation ratio stood at 8.4. Moreover, in data set [3] (study 2689-CL-2004, 30-mg cohort), the “geometric mean ratio of AC886 AUC0-24,ss to quizartinib AUC0-24,ss” value is 0.544. Further, the “geometric mean ratio of AC886 AUC0-24,ss to quizartinib AUC0-24,ss” value in data set [3] (study 2689-CL-2004, 60-mg cohort) stood at 0.485. For the same molecule, on FLT3 kinase, the Kd is 1.1 nM.

In the case of `CC(C)(C)c1cc(NC(=O)Nc2ccc(-c3cn4c(n3)sc3cc(OCCN5CCOCC5)ccc34)cc2)no1` [quizartinib], in data set [4] (setting [6]), the “increase in CL in patients with AML (initial characterization)” value was 75%, the “increase in Vc in patients with AML (initial characterization)” value stood at 36% and the “increase in Vp1 in patients with AML (initial characterization)” value was 102%. In addition, in data set [4] (covariate test and sensitivity analysis), the “effect of eGFR on quizartinib CL” value is “No significant effect”. In data set [4] (final estimate), the “Magnitude of interindividual variability in ALAG1” value was 62.0% CV, the “Magnitude of interindividual variability in CL” value is reported as 55.1% CV, the “Magnitude of interindividual variability in D1” value is recorded as 69.3% CV and the “Magnitude of interindividual variability in F1” value is reported as 34.8% CV. Moreover, in data set [4] (final estimate), the “Magnitude of interindividual variability in Ka” value is 38.5% CV, the “Magnitude of interindividual variability in Q1” value is on record as 24.8% CV, the “Magnitude of interindividual variability in Vc” value is 27.6% CV and the “Magnitude of interindividual variability in Vp1” value is given as 39.7% CV. In addition, in data set [4] (final model), the “decrease in CL with strong CYP3A inhibitor use” value amounted to 44.1%, the “increase in CL for patients with AML versus healthy volunteers” value came to 8.2%, the “increase in F1 with strong CYP3A inhibitor use” value is 13.6% and the “reduction in bioavailability for patients with AML versus healthy volunteers” value was found to be 40.1%. Also, the Vd in data set [4] (human, plasma, oral) worked out at 194 L. In addition, in data set [4] (setting [7]), the “IOV in CL on occasion 1” value is given as 40.9% CV, the “IOV in F1 on occasion 1” value is reported as 22.6% CV and the “IOV in Vc on occasion 1” value is listed as 20.3% CV. In addition, in data set [4] (setting [8]), the “IOV in CL on occasion 2” value came to 40.9% CV and the “IOV in Vc on occasion 2” value worked out at 20.3% CV. Also, in data set [4] (setting [9]), the “IOV in CL on occasion 3” value worked out at 40.9% CV, the “IOV in F1 on occasion 3” value came out at 22.6% CV and the “IOV in Vc on occasion 3” value came to 20.3% CV. Also, in data set [4] (setting [10]), the “IOV in CL on occasion 4” value was determined as 40.9% CV and the “IOV in Vc on occasion 4” value was determined as 20.3% CV. In addition, in data set [4] (population mean), the “ALAG1 (absorption lag time)” value is listed as 0.205 h, the “CL (apparent clearance for parent)” value was 2.77 L/h, the “D1 (duration of zero-order input to depot compartment)” value came out at 0.708 h and the “F1 (fractional change in F1 for strong CYP3A inhibitors)” value was found to be 0.136. Further, in data set [4] (population mean), the “F1 (fractional change in study 019 F1 for fed)” value is 0.0509, the “Q1 (exponent for BSA on Q1)” value came to 0.970, the “Vc (exponent of [ALB/4.1] for Vc)” value is listed as −0.725 and the “Vc (exponent of [BSA/1.9] for Vc)” value is listed as 1.46. For the same molecule, in data set [4] (population mean), the “Vp1 (exponent for BSA on Vp1)” value stood at 1.50 and the “Vp1 (exponent for age on Vp1)” value is listed as 0.453. Also, the “Ka (first-order absorption constant for healthy participants)” value in data set [4] (population mean, healthy participants) came to 0.874 h⁻¹. Moreover, the “Ka (first-order absorption constant for patients)” value in data set [4] (population mean, patients with AML) was determined as 1.68 h⁻¹. Moreover, the “Ka (fractional change in Ka for fed status [019 only])” value in data set [4] (population mean, study AC220-019, fed vs fasted) is reported as −0.512. In data set [4] (study AC220-019), the “decrease in ka under fed versus fasted conditions” value was 51.2% and the “increase in F1 under fed versus fasted conditions” value turned out to be 5.1%. Moreover, the Tmax in data set [3] (human, plasma, oral, observed Tmax, patients with AML) is around 2 h. In data set [5] (drug-drug interaction study with ketoconazole or fluconazole), the “increase in quizartinib exposure by strong CYP3A inhibitors” value is recorded as “approximately 2 fold”. The “effect of lansoprazole on bioavailability” value in data set [5] (phase 1 study) is “did not result in a meaningful change”.

For the molecule `CCc1nc(C(N)=O)c(Nc2ccc(N3CCC(N4CCN(C)CC4)CC3)c(OC)c2)nc1NC1CCOCC1` [gilteritinib], the “increase in exposure with strong CYP3A inhibitor itraconazole” value in data set [1] was “approximately 2.2 fold”. In addition, the “decrease in exposure with strong CYP3A4 inducer rifampin” value in data set [1] (versus gilteritinib alone) is listed as 30%.

The term Kd denotes the free concentration of one partner at which half of the binding sites on the other are occupied at equilibrium, for simple one-to-one binding. As a reminder, the Tmax is the time from dosing to the highest level.
